How the values were obtained:
Format in all cases: biochemical
[1] = target: T1, IRAK4 (Homo sapiens, UniProt Q9NWZ3); assay: RBC HotSpot Kinase Assay, IRAK4; set-up: purchased Reaction Biology (RBC HotSpot Kinase Assay)
T1 sequence (Q9NWZ3 1-460): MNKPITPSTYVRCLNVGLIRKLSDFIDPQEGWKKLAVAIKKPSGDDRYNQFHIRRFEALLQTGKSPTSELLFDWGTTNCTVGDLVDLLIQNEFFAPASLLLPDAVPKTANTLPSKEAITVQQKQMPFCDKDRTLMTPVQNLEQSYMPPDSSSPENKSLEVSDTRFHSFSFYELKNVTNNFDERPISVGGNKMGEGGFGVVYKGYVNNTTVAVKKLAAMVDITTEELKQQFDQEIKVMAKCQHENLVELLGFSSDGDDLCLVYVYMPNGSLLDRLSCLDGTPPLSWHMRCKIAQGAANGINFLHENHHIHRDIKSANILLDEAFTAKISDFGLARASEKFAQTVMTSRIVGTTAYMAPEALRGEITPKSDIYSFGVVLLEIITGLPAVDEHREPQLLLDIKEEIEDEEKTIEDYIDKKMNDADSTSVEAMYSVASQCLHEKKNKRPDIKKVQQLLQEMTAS
From the text: (§1) This assay uses the isolated kinase enzyme. This assay is very useful for determining competition of the inhibitor for ATP and/or substrates and for measuring the kinetics of enzyme inhibition. […] Unlike kinase binding assays that measure competition for ATP, the HotSpot Kinase Assay is a functional assay that measures catalytic activity; as such it measures relative functional potency regardless of the mechanism of enzyme inhibition. This assay uses the form of the various enzymes that are easiest to express, which may not necessarily be the form of the enzyme that exist in the cell. (Sometimes the carboxy terminus has been truncated to aid in expression, or, if it is a receptor kinase, the enzyme itself is isolated from the other parts of the receptor that are involved in regulating kinase activity.)
(§2) The reagent used was as follows: Base Reaction buffer; 20 mM Hepes (pH 7.5), 10 mM MgCl2, 1 mM EGTA, 0.01% Brij35, 0.02 mg/ml BSA, 0.1 mM Na3VO4, 2 mM DTT, 1% DMSO. Required cofactors were added individually to each kinase reaction.
(§3) The reaction procedure was as follows: • 1) Substrates were prepared in freshly prepared Reaction Buffer. • 2) Any required cofactors were delivered to the substrate solution above. • 3) Kinase was delivered into the substrate solution and gently mixed. • 4) Compounds were delivered in 100% DMSO into the kinase reaction mixture by Acoustic technology (Echo550; nanoliter range), followed by incubation for 20 min at room temp. • 5) ^33P-ATP was delivered into the reaction mixture to initiate the reaction. • 6) The mixture was incubated for 2 hours at room temperature. • 7) Kinase activity was detected by P81 filter-binding method.

[2] = target: T2, IRAK1 (Homo sapiens, UniProt P51617); assay: RBC HotSpot Kinase Assay, IRAK1
T2 construct: purchased Reaction Biology (RBC HotSpot Kinase Assay)
T2 sequence (P51617 whole entry): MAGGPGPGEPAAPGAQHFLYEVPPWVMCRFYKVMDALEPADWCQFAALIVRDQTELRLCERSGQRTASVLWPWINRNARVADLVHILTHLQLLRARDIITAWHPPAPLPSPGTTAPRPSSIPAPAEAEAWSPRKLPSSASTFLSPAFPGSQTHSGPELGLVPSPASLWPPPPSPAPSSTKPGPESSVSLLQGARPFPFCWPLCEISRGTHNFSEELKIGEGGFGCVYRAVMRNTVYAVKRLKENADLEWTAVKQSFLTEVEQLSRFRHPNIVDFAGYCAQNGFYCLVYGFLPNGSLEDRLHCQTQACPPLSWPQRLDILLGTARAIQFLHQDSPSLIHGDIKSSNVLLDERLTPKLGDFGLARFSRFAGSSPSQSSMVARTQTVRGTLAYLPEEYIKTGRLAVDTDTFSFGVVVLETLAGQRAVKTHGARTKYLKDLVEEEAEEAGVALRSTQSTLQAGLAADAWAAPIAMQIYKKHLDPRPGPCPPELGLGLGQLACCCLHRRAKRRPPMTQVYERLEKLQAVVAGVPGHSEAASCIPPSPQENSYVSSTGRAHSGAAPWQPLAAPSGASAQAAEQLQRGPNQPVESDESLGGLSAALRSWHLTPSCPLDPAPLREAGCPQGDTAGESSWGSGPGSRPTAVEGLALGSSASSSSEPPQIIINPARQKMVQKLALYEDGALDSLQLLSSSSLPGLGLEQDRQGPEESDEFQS
From the text: as §1, §2, §3

[3] = target: T3, FLT3 (Homo sapiens, UniProt P36888); assay: RBC HotSpot Kinase Assay, FLT3
T3 construct: purchased Reaction Biology (RBC HotSpot Kinase Assay)
T3 sequence (P36888 564-958 limits assumed): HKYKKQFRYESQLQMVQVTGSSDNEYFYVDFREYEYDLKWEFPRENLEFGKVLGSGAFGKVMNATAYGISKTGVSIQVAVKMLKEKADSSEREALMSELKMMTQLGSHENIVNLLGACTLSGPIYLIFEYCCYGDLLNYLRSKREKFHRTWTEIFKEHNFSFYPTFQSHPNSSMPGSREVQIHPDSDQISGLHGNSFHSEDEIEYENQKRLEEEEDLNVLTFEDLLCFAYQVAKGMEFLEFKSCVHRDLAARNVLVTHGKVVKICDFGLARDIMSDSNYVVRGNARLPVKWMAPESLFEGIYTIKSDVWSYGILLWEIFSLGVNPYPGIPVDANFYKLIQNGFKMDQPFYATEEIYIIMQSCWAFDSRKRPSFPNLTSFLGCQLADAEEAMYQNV
From the text: as §1, §2, §3

Row | SMILES | IC50 [1] [nM] | IC50 [2] [nM] | IC50 [3] [nM]
1 | FC(F)n1cc(-c2ccc3ncc(-c4cccc(NC5CNCC5(F)F)n4)n3n2)cn1 (stereo not drawn) [Compound 23, 6-(6-(1-(difluoromethyl)-1H-pyrazol-4-yl)imidazo[1,2-b]pyridazin-3-yl)-N-(4,4-difluoropyrrolidin-3-yl)pyridin-2-amine] | 75 | 1150 | 16
2 | FC(F)c1ccc2ncc(-c3cccc(N[C@H]4CNC[C@@H]4F)n3)n2n1 [Compound 78, 6-(6-(difluoromethyl)imidazo[1,2-b]pyridazin-3-yl)-N-((3S,4S)-4-fluoropyrrolidin-3-yl)pyridin-2-amine] | 29 | 1860 | 6
3 | c1cc(NC2CC3(CCNC3)C2)nc(-c2cnc3ccc(-c4cn[nH]c4)nn23)c1 (stereo not drawn) [Compound 38, N-(6-(6-(1H-pyrazol-4-yl)imidazo[1,2-b]pyridazin-3-yl)pyridin-2-yl)-6-azaspiro[3.4]octan-2-amine] | 2 | 23 | < 0.5
4 | c1ccc(-n2cc(-c3ccc4ncc(-c5cccc(NC6CCC7(CNC7)C6)n5)n4n3)cn2)cc1 (stereo not drawn) [Compound 47, N-(6-(6-(1-phenyl-1H-pyrazol-4-yl)imidazo[1,2-b]pyridazin-3-yl)pyridin-2-yl)-2-azaspiro[3.4]octan-6-amine] | 3200 | > 10000 | 19
5 | c1cc(N[C@@H]2CCCNC2)nc(-c2cnc3ccc(C4CC4)nn23)c1 [Compound 76, (R)-6-(6-cyclopropylimidazo[1,2-b]pyridazin-3-yl)-N-(piperidin-3-yl)pyridin-2-amine] | 345 | 3140 | 0.6
6 | FC1(F)CNCC1Nc1cccc(-c2cnc3ccc(-c4cnn(C5CC5)c4)nn23)n1 (stereo not drawn) [Compound 22, 6-(6-(1-cyclopropyl-1H-pyrazol-4-yl)imidazo[1,2-b]pyridazin-3-yl)-N-(4,4-difluoropyrrolidin-3-yl)pyridin-2-amine] | 44 | 678 | 6
7 | c1ccc(-n2cc(-c3ccc4ncc(-c5cccc(NC6CC7(CCNC7)C6)n5)n4n3)cn2)cc1 (stereo not drawn) [Compound 40, N-(6-(6-(1-phenyl-1H-pyrazol-4-yl)imidazo[1,2-b]pyridazin-3-yl)pyridin-2-yl)-6-azaspiro[3.4]octan-2-amine] | 1300 | > 10000 | 9
8 | CC(C)(O)Cn1cc(-c2ccc3ncc(-c4cccc(N[C@H]5CNC[C@@H]5F)n4)n3n2)cn1 [Compound 4, 1-(4-(3-(6-(((3S,4S)-4-fluoropyrrolidin-3-yl)amino)pyridin-2-yl)imidazo[1,2-b]pyridazin-6-yl)-1 H-pyrazol-1-yl)-2-methylpropan-2-ol] | 114 | 1360 | 3
9 | CO[C@H]1CNC[C@@H]1Nc1cccc(-c2cnc3ccc(C4CC4)nn23)n1 [Compound 74, 6-(6-cyclopropylimidazo[1,2-b]pyridazin-3-yl)-N-((3S,4S)-4-methoxypyrrolidin-3-yl)pyridin-2-amine] | 148 | 5860 | 4
10 | FC(F)(F)[C@H]1CNC[C@@H]1Nc1cccc(-c2cnc3ccc(C4CC4)nn23)n1 [Compound 71, 6-(6-cyclopropylimidazo[1,2-b]pyridazin-3-yl)-N-((3R,4S)-4-(trifluoromethyl)pyrrolidin-3-yl)pyridin-2-amine] | 36 | 2650 | 0.8
11 | CC(C)n1cc(-c2ccc3ncc(-c4cccc(NC5CC6(CCNC6)C5)n4)n3n2)cn1 (stereo not drawn) [Compound 39, N-(6-(6-(1-isopropyl-1H-pyrazol-4-yl)imidazo[1,2-b]pyridazin-3-yl)pyridin-2-yl)-6-azaspiro[3.4]octan-2-amine] | 321 | 2330 | 8
12 | COc1cc2ncc(-c3cccc(N[C@@H]4CCCNC4)n3)n2nc1N1CCCC1=O [Compound 137, (R)-1-(7-methoxy-3-(6-(piperidin-3-ylamino)pyridin-2-yl)imidazo[1,2-b]pyridazin-6-yl)pyrrolidin-2-one] | 1980 | > 10000 | 13
13 | c1cc(NC2CC3(CNC3)C2)nc(-c2cnc3ccc(-c4cnn(C5CCOCC5)c4)nn23)c1 [Compound 34, N-(6-(6-(1-(tetrahydro-2H-pyran-4-yl)-1H-pyrazol-4-yl)imidazo[1,2-b]pyridazin-3-yl)pyridin-2-yl)-2-azaspiro[3.3]heptan-6-amine] | 5070 | > 10000 | 16
14 | c1ccc(-n2cc(-c3ccc4ncc(-c5cccc(NC6CCNC6)n5)n4n3)cn2)cc1 (stereo not drawn) [Compound 28, 6-(6-(1-phenyl-1H-pyrazol-4-yl)imidazo[1,2-b]pyridazin-3-yl)-N-(pyrrolidin-3-yl)pyridin-2-amine] | 2360 | 6580 | 2
15 | CC(C)Oc1cnn2c(-c3cccc(N[C@H]4CNC[C@@H]4F)n3)cnc2c1 [Compound 115, N-((3S,4S)-4-fluoropyrrolidin-3-yl)-6-(7-isopropoxyimidazo[1,2-b]pyridazin-3-yl)pyridin-2-amine] | 323 | 3190 | 9
16 | CC(C)n1cc(-c2ccc3ncc(-c4cccc(NC5CCNC5)n4)n3n2)cn1 (stereo not drawn) [Compound 27, 6-(6-(1-isopropyl-1H-pyrazol-4-yl)imidazo[1,2-b]pyridazin-3-yl)-N-(pyrrolidin-3-yl)pyridin-2-amine] | 609 | 1620 | 5
17 | c1cc(NC2CC3(CCNC3)C2)nc(-c2cnc3ccc(-c4cnn(C5CNC5)c4)nn23)c1 (stereo not drawn) [Compound 44, N-(6-(6-(1-(azetidin-3-yl)-1H-pyrazol-4-yl)imidazo[1,2-b]pyridazin-3-yl)pyridin-2-yl)-6-azaspiro[3.4]octan-2-amine] | 4340 | > 10000 | 4
18 | Fc1cc(F)c2c(-c3ccc4ncc(-c5cccc(NC6CNCC6(F)F)n5)n4n3)cnn2c1 (stereo not drawn) [Compound 55, 6-(6-(4,6-difluoropyrazolo[1,5-a]pyridin-3-yl)imidazo[1,2-b]pyridazin-3-yl)-N-(4,4-difluoropyrrolidin-3-yl)pyridin-2-amine] | 113 | 6840 | 16
19 | COc1cc2ncc(-c3cccc(N[C@H]4CNC[C@@H]4C)n3)n2nc1C1CC1 [Compound 98, 6-(6-cyclopropyl-7-methoxyimidazo[1,2-b]pyridazin-3-yl)-N-((3R,4S)-4-methylpyrrolidin-3-yl)pyridin-2-amine] | 2 | 375 | < 0.5
20 | FC1(F)CNCC1Nc1cccc(-c2cnc3ccc(-c4cnn5c4CCCC5)nn23)n1 (stereo not drawn) [Compound 59, N-(4,4-difluoropyrrolidin-3-yl)-6-(6-(4,5,6,7-tetrahydropyrazolo[1,5-a]pyridin-3-yl)imidazo[1,2-b]pyridazin-3-yl)pyridin-2-amine] | 12 | 621 | 2
21 | Cc1oncc1-c1ccc2ncc(-c3cccc(NC4CCC5(CNC5)C4)n3)n2n1 (stereo not drawn) [Compound 50, N-(6-(6-(5-methylisoxazol-4-yl)imidazo[1,2-b]pyridazin-3-yl)pyridin-2-yl)-2-azaspiro[3.4]octan-6-amine] | 2670 | 1060 | 8
